Measurements as given in ChEMBL document CHEMBL1201862, “PubChem BioAssay data set” (2004).
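Assay format: 96-well plates, 48-hour exposure. Here, GI50 denotes the concentration required for 50% inhibition of growth.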 Active and inactive are the calls of the source. No stated cut-off is given here; in the data, active = GI50 up to about 1.1 µM and inactive = higher.

Assays:
Assay in all cases: NCI anticancer screen, dose series, 48 h
NCI-H226 = system: NCI-H226
SK-MEL-2 = system: SK-MEL-2
HL-60 = system: HL-60
UO-31 = system: UO-31
HCC 2998 = system: HCC 2998
TK-10 = system: TK-10
MDA-N = system: MDA-N
NCI/ADR-RES = system: NCI/ADR-RES
K562 = system: K562
DU-145 = system: DU-145
SNB-19 = system: SNB-19
UACC-62 = system: UACC-62
Malme-3M = system: Malme-3M
NCI-H460 = system: NCI-H460
A498 = system: A498
Hs-578T = system: Hs-578T
ACHN = system: ACHN
CCRF-CEM = system: CCRF-CEM

Measured: GI50

COc1cc(C2c3cc4c(cc3OC(Nc3ccccc3)C2C)OCO4)cc(OC)c1O (stereo not drawn)
inactive: NCI-H226 19.6 µM | SK-MEL-2 2.22 µM | HL-60 1.92 µM | UO-31 8.38 µM | HCC 2998 4.12 µM | TK-10 3.49 µM | MDA-N 1.18 µM | NCI/ADR-RES 2.38 µM | K562 1.97 µM | DU-145 4.02 µM | SNB-19 10.6 µM | UACC-62 3.66 µM | Malme-3M 5.47 µM

CCCC[S+]([O-])CCC(N)C(=O)O (stereo not drawn)
inactive: NCI-H226 > 100 µM | NCI-H460 > 100 µM | A498 > 100 µM | HL-60 > 100 µM | UO-31 > 100 µM | HCC 2998 > 100 µM | Hs-578T > 100 µM | ACHN > 100 µM | TK-10 > 100 µM | MDA-N > 100 µM | NCI/ADR-RES > 100 µM | K562 > 100 µM | DU-145 > 100 µM | SNB-19 > 100 µM | CCRF-CEM > 100 µM | UACC-62 > 100 µM | Malme-3M 1.94 µM

COCCOCOC(CCCCO)c1cc(C)c(O[Si](C)(C)C(C)(C)C)c(C)c1 (stereo not drawn)
inactive: NCI-H226 2.41 µM | NCI-H460 5.24 µM | A498 12.4 µM | SK-MEL-2 8.89 µM | HL-60 1.59 µM | UO-31 4.11 µM | HCC 2998 7.03 µM | ACHN 7.62 µM | TK-10 13.4 µM | K562 3.22 µM | SNB-19 6.35 µM | CCRF-CEM 4.39 µM | UACC-62 12.2 µM | Malme-3M 2.47 µM

CC1CC(C)C(O)C(C2CC(CC(=O)NC3CCCCC3)CC(=O)O2)C1 (stereo not drawn)
inactive: NCI-H226 > 100 µM | NCI-H460 > 100 µM | A498 > 100 µM | HL-60 > 100 µM | HCC 2998 > 100 µM | Hs-578T > 100 µM | ACHN > 100 µM | TK-10 > 100 µM | MDA-N > 100 µM | NCI/ADR-RES > 100 µM | K562 > 100 µM | DU-145 > 100 µM | SNB-19 > 100 µM | CCRF-CEM > 100 µM | Malme-3M > 100 µM

CCOC(=O)Cn1c(=O)c2nc(SC)sc2n(CC)c1=S
inactive: NCI-H226 > 100 µM | NCI-H460 > 100 µM | SK-MEL-2 > 100 µM | HL-60 > 100 µM | UO-31 14.2 µM | HCC 2998 > 100 µM | Hs-578T 22.1 µM | ACHN > 100 µM | TK-10 > 100 µM | MDA-N > 100 µM | NCI/ADR-RES > 100 µM | K562 > 100 µM | DU-145 > 100 µM | SNB-19 > 100 µM | CCRF-CEM > 100 µM | Malme-3M > 100 µM

FC1=C2CCCCCC2SC1(F)F (stereo not drawn)
inactive: NCI-H226 > 100 µM | SK-MEL-2 > 100 µM | HL-60 12.7 µM | UO-31 > 100 µM | HCC 2998 > 100 µM | Hs-578T > 100 µM | ACHN 29.8 µM | TK-10 36.6 µM | MDA-N 42.2 µM | NCI/ADR-RES > 100 µM | K562 20.8 µM | DU-145 > 100 µM | SNB-19 > 100 µM | CCRF-CEM 3.36 µM | UACC-62 > 100 µM | Malme-3M 21.9 µM

C=O.NNCCc1n[nH]c(=O)n1N
inactive: NCI-H226 > 100 µM | NCI-H460 > 100 µM | HL-60 > 100 µM | UO-31 > 100 µM | HCC 2998 > 100 µM | Hs-578T > 100 µM | ACHN > 100 µM | MDA-N > 100 µM | NCI/ADR-RES > 100 µM | K562 > 100 µM | DU-145 > 100 µM | SNB-19 > 100 µM | CCRF-CEM > 100 µM | UACC-62 > 100 µM | Malme-3M > 100 µM

CC1(C)C(OC(=O)c2ccccc2)C[C@]23CCC[C@](C)(C[C@@H](O)C12)C3 (stereo partly drawn)
inactive: NCI-H226 18.8 µM | NCI-H460 16.2 µM | SK-MEL-2 17.6 µM | HL-60 31.5 µM | UO-31 18.8 µM | Hs-578T 19 µM | ACHN 17.9 µM | TK-10 29.5 µM | MDA-N 18.9 µM | NCI/ADR-RES 14.5 µM | K562 13.5 µM | DU-145 21.2 µM | SNB-19 23.6 µM | CCRF-CEM 11.7 µM | UACC-62 15.2 µM | Malme-3M 19.2 µM

CC1(C)N=c2c(ncn2CCO)=C(C(N)=O)N1
inactive: NCI-H226 > 100 µM | NCI-H460 > 100 µM | A498 > 100 µM | HL-60 > 100 µM | HCC 2998 > 100 µM | Hs-578T > 100 µM | ACHN > 100 µM | TK-10 > 100 µM | MDA-N > 100 µM | NCI/ADR-RES > 100 µM | K562 > 100 µM | DU-145 > 100 µM | SNB-19 > 100 µM | CCRF-CEM > 100 µM | UACC-62 > 100 µM | Malme-3M > 100 µM
